{"source": "patent US4772618A", "about": "“Benzamides” (priority 1985, dated 1988)", "key": {"stomach emptying": {"test_system": "stomach emptying", "experiment": "Stomach emptying in the rat (stomach emptying index, glass beads), oral route", "assay_type": "in vivo", "design": "key: index computed from beads emptied by treated (nx) vs control (nc) rats", "procedure": "Stomach emptying in the rat, administering compounds via the oral (0.1-1 mg/Kg) and intraperitoneal routes (1-10 mg/Kg), (see Jacoby, H. I. and Brodie, D. A., Gastroenterol. 52, 676-684, 1967).\nA stomach emptying index was calculated as follows:\n40 Glass beads (diam.perspectiveto.1 mm) administered to each rat after dosing with the test compounds at 0.1, 0.3 and 1 mg/Kg p.o. Results calculated according to the formulae: [formula] where: nc =the number of beads empited by control animals.\nnx =the number of beads emptied by treated animals.\nSEI=Stomach emptying index [formula]"}, "[1]": {"target": "T1, central and peripheral D2 (DA2)--dopamine receptors (Rattus norvegicus, UniProt P61169)", "T1 construct": "Apomorphine-induced stereotyped behaviour in the rat, administering compounds via the intraperitoneal route; from tissue; host or cells: whole living rat (in vivo, intraperitoneal dosing)", "T1 sequence (P61169 whole entry)": "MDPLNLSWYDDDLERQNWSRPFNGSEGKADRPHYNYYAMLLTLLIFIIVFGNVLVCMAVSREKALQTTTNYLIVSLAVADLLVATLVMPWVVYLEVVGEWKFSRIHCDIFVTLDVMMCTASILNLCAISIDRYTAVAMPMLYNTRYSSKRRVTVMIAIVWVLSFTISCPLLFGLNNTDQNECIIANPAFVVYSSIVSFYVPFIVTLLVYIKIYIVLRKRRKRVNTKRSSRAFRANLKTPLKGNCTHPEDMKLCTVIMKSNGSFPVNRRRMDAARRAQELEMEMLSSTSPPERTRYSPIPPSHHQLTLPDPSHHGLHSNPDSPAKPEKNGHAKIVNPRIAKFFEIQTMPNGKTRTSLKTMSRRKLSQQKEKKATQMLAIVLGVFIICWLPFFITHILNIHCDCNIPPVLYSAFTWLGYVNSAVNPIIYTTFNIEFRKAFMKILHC", "experiment": "Apomorphine-induced stereotyped behaviour in the rat, intraperitoneal route", "assay_type": "in vivo", "procedure": "The pharmacological screening for undesirable effects upon central and peripheral D2 (DA2)--dopamine receptors was carried out using the following tests:\n2. […]. (see Janssen, P. A. J., Niemegeers, C. J. E. and Jageneau, A. H. Arzneim. Forsch. 10, 1003-1005, 1960)."}, "[2]": {"target": "T2, central and peripheral D2 (DA2)--dopamine receptors (Canis lupus familiaris, UniProt Q9GJU1)", "T2 construct": "Apomorphine-induced emesis in the dog, administering compounds via the intravenous route; from tissue; host or cells: whole living dog (in vivo, intravenous dosing)", "T2 sequence (Q9GJU1 whole entry)": "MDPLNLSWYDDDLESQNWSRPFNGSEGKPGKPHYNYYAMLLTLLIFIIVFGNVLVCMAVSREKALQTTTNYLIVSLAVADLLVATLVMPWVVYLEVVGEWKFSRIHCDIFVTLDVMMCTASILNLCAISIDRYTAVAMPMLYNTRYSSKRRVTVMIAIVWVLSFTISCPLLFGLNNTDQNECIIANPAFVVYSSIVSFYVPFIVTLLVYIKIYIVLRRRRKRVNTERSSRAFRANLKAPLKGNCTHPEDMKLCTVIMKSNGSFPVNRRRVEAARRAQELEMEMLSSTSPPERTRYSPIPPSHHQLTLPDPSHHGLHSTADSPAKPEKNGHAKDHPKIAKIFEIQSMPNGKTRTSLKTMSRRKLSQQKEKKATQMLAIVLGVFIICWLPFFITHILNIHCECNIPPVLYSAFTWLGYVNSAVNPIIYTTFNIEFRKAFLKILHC", "experiment": "Apomorphine-induced emesis in the dog, intravenous route", "assay_type": "in vivo", "procedure": "The pharmacological screening for undesirable effects upon central and peripheral D2 (DA2)--dopamine receptors was carried out using the following tests: 3. […] (see […]., High, […]., Burke, J. C. and […]. Exp. Therap., 127, 55-65, 1959)."}, "[3]": {"test_system": "dopamine receptors in the striatum and hypophysis", "details": "cited from earlier work"}, "[4]": {"details": "Table 1, 0.1, 0.3 and 1 mg/Kg p.o."}, "[5]": {"details": "Table 2 (with aromatic compounds), 0.1, 0.3 and 1 mg/Kg p.o."}, "[6]": {"details": "Table 2 (with aromatic compounds), ip"}, "[7]": {"details": "Table 2 (with aromatic compounds)"}}, "note": "Like-named read-outs stand apart in the source and are kept apart here."}
{"smiles": "COc1cc(N)c(Cl)cc1C(=O)NC1CCN(Cc2ccccc2)CC1", "note": "[CLEBOPRIDE, N(1benzylpiperid-4-yl)-2-methoxy-4-amino-5-chlorobenzamide, reference compound]", "values": [{"measurement": "Stomach emptying index in the rat via oral route", "setting": "stomach emptying; [4]", "value": 50.0}, {"measurement": "Stomach emptying index in the rat via oral route", "setting": "stomach emptying; [5]", "value": 50.0}, {"measurement": "Antidopaminergic activity: rat stereotype behaviour induced by apomorphine, ID50", "setting": "[1]; Table 1, ip", "value": 0.3, "unit": "mg/kg"}, {"measurement": "Antidopaminergic activity: rat stereotype behaviour induced by apomorphine, ID50", "setting": "[1]; [6]", "value": 0.3, "unit": "mg/kg"}, {"measurement": "Antidopaminergic activity: dog emesis screen, ID50", "setting": "[2]; Table 1", "value": 0.0096, "unit": "mg/kg"}, {"measurement": "Antidopaminergic activity: dog emesis screen, ID50", "setting": "[2]; [7]", "value": 0.0096, "unit": "mg/kg"}, {"measurement": "side effects associated with dopamine receptor blockade in some patients", "setting": "[3]; in words, some patients", "value": "extrapyramidal symptoms and hyperprolactinemia related side effects in some patients"}]}
{"smiles": "CCCOc1cc(N)c(Cl)cc1C(=O)NC1CCN(CCCC2CCCO2)CC1", "note": "(centres unmarked) [COMPOUND 39]", "values": [{"measurement": "Stomach emptying index in the rat via oral route", "setting": "stomach emptying; [4]", "value": 45.8}, {"measurement": "Antidopaminergic activity: rat stereotype behaviour induced by apomorphine, ID50", "setting": "[1]; Table 1, ip", "value": "> 30.0", "unit": "mg/kg"}, {"measurement": "Antidopaminergic activity: dog emesis screen, ID50", "setting": "[2]; Table 1", "value": "> 1", "unit": "mg/kg"}]}
{"smiles": "CCCCOc1cc(N)c(Cl)cc1C(=O)NC1CCN(CC2CCCCO2)CC1", "note": "(centres unmarked) [COMPOUND 57]", "values": [{"measurement": "Stomach emptying index in the rat via oral route", "setting": "stomach emptying; [4]", "value": 51.0}, {"measurement": "Antidopaminergic activity: rat stereotype behaviour induced by apomorphine, ID50", "setting": "[1]; Table 1, ip", "value": "> 30.0", "unit": "mg/kg"}, {"measurement": "Antidopaminergic activity: dog emesis screen, ID50", "setting": "[2]; Table 1", "value": "> 1", "unit": "mg/kg"}]}
{"smiles": "CCCCOc1cc(N)c(Cl)cc1C(=O)NC1CCN(CC2OCCO2)CC1", "note": "[COMPOUND 66, N-[1-[2-(1,3-dioxolanyl)methyl]piperid-4-yl]-2-butoxy-4-amino-5-chlorobenzamide]", "values": [{"measurement": "Stomach emptying index in the rat via oral route", "setting": "stomach emptying; [4]", "value": 53.7}, {"measurement": "Antidopaminergic activity: rat stereotype behaviour induced by apomorphine, ID50", "setting": "[1]; Table 1, ip", "value": "> 30.0", "unit": "mg/kg"}, {"measurement": "Antidopaminergic activity: dog emesis screen, ID50", "setting": "[2]; Table 1", "value": "> 1", "unit": "mg/kg"}]}
{"smiles": "CCCCOc1cc(N)c(Cl)cc1C(=O)NC1CCN(CC2OC(C)(C)C(C)(C)O2)CC1", "note": "[COMPOUND 91]", "values": [{"measurement": "Stomach emptying index in the rat via oral route", "setting": "stomach emptying; [4]", "value": 54.9}, {"measurement": "Antidopaminergic activity: rat stereotype behaviour induced by apomorphine, ID50", "setting": "[1]; Table 1, ip", "value": "> 30.0", "unit": "mg/kg"}, {"measurement": "Antidopaminergic activity: dog emesis screen, ID50", "setting": "[2]; Table 1", "value": "> 1", "unit": "mg/kg"}]}
{"smiles": "CCCCOc1cc(N)c(Cl)cc1C(=O)NC1CCN(CC2OC3CCCCC3O2)CC1", "note": "(centres unmarked) [COMPOUND 95]", "values": [{"measurement": "Stomach emptying index in the rat via oral route", "setting": "stomach emptying; [4]", "value": 49.0}, {"measurement": "Antidopaminergic activity: rat stereotype behaviour induced by apomorphine, ID50", "setting": "[1]; Table 1, ip", "value": "> 30.0", "unit": "mg/kg"}, {"measurement": "Antidopaminergic activity: dog emesis screen, ID50", "setting": "[2]; Table 1", "value": "> 1", "unit": "mg/kg"}]}
{"smiles": "COc1cc(N)c(Cl)cc1C(=O)NC1CCN(CC2COCO2)CC1", "note": "(centres unmarked) [COMPOUND 98]", "values": [{"measurement": "Stomach emptying index in the rat via oral route", "setting": "stomach emptying; [4]", "value": 60.1}, {"measurement": "Antidopaminergic activity: rat stereotype behaviour induced by apomorphine, ID50", "setting": "[1]; Table 1, ip", "value": "> 30.0", "unit": "mg/kg"}, {"measurement": "Antidopaminergic activity: dog emesis screen, ID50", "setting": "[2]; Table 1", "value": "> 1", "unit": "mg/kg"}]}
{"smiles": "CCCOc1cc(N)c(Cl)cc1C(=O)NC1CCN(CC2OCCCO2)CC1", "note": "[COMPOUND 108]", "values": [{"measurement": "Stomach emptying index in the rat via oral route", "setting": "stomach emptying; [4]", "value": 51.0}, {"measurement": "Antidopaminergic activity: rat stereotype behaviour induced by apomorphine, ID50", "setting": "[1]; Table 1, ip", "value": "> 30.0", "unit": "mg/kg"}, {"measurement": "Antidopaminergic activity: dog emesis screen, ID50", "setting": "[2]; Table 1", "value": "> 1", "unit": "mg/kg"}]}
{"smiles": "CCCCOc1cc(N)c(Cl)cc1C(=O)NC1CCN(CC2OCCCO2)CC1", "note": "[COMPOUND 109]", "values": [{"measurement": "Stomach emptying index in the rat via oral route", "setting": "stomach emptying; [4]", "value": 61.3}, {"measurement": "Antidopaminergic activity: rat stereotype behaviour induced by apomorphine, ID50", "setting": "[1]; Table 1, ip", "value": "> 30.0", "unit": "mg/kg"}, {"measurement": "Antidopaminergic activity: dog emesis screen, ID50", "setting": "[2]; Table 1", "value": "> 1", "unit": "mg/kg"}]}
{"smiles": "CCCCOc1cc(N)c(Cl)cc1C(=O)NC1CCN(CC2OCCCCO2)CC1", "note": "[COMPOUND 116]", "values": [{"measurement": "Stomach emptying index in the rat via oral route", "setting": "stomach emptying; [4]", "value": 56.2}, {"measurement": "Antidopaminergic activity: rat stereotype behaviour induced by apomorphine, ID50", "setting": "[1]; Table 1, ip", "value": "> 30.0", "unit": "mg/kg"}, {"measurement": "Antidopaminergic activity: dog emesis screen, ID50", "setting": "[2]; Table 1", "value": "> 1", "unit": "mg/kg"}]}
{"smiles": "COc1cc(N)c(Cl)cc1C(=O)NC1CCN(Cc2cccs2)CC1", "note": "[COMPOUND A, reference compound]", "values": [{"measurement": "Stomach emptying index in the rat via oral route", "setting": "stomach emptying; [5]", "value": 40.3}, {"measurement": "Antidopaminergic activity: rat stereotype behaviour induced by apomorphine, ID50", "setting": "[1]; [6]", "value": "3 to 10", "unit": "mg/kg"}, {"measurement": "Antidopaminergic activity: dog emesis screen, ID50", "setting": "[2]; [7]", "value": "0.01 to 0.03", "unit": "mg/kg"}]}
{"smiles": "COc1cc(N)c([N+](=O)[O-])cc1C(=O)NC1CCN(Cc2cccs2)CC1", "note": "[COMPOUND B, reference compound]", "values": [{"measurement": "Stomach emptying index in the rat via oral route", "setting": "stomach emptying; [5]", "value": 17.7}, {"measurement": "Antidopaminergic activity: rat stereotype behaviour induced by apomorphine, ID50", "setting": "[1]; [6]", "value": "10 to 30", "unit": "mg/kg"}, {"measurement": "Antidopaminergic activity: dog emesis screen, ID50", "setting": "[2]; [7]", "value": "0.03 to 0.1", "unit": "mg/kg"}]}
{"smiles": "COc1cc(N)c(Cl)cc1C(=O)NC1CCN(Cc2ccccn2)CC1", "note": "[COMPOUND C, reference compound]", "values": [{"measurement": "Stomach emptying index in the rat via oral route", "setting": "stomach emptying; [5]", "value": 25.0}, {"measurement": "Antidopaminergic activity: rat stereotype behaviour induced by apomorphine, ID50", "setting": "[1]; [6]", "value": "10 to 30", "unit": "mg/kg"}, {"measurement": "Antidopaminergic activity: dog emesis screen, ID50", "setting": "[2]; [7]", "value": "0.03 to 0.1", "unit": "mg/kg"}]}
{"smiles": "COc1cc(N)c(Cl)cc1C(=O)NC1CCN(Cc2ccco2)CC1", "note": "[COMPOUND D, reference compound]", "values": [{"measurement": "Stomach emptying index in the rat via oral route", "setting": "stomach emptying; [5]", "value": 19.3}, {"measurement": "Antidopaminergic activity: rat stereotype behaviour induced by apomorphine, ID50", "setting": "[1]; [6]", "value": "3 to 10", "unit": "mg/kg"}, {"measurement": "Antidopaminergic activity: dog emesis screen, ID50", "setting": "[2]; [7]", "value": "0.01 to 0.03", "unit": "mg/kg"}]}
{"smiles": "CCN(CC)CCNC(=O)c1cc(Cl)c(N)cc1OC", "note": "[METOCLOPRAMIDE, reference compound]", "values": [{"measurement": "Stomach emptying index in the rat via oral route", "setting": "stomach emptying; [4]", "value": 24.7}, {"measurement": "Stomach emptying index in the rat via oral route", "setting": "stomach emptying; [5]", "value": 24.7}, {"measurement": "Antidopaminergic activity: rat stereotype behaviour induced by apomorphine, ID50", "setting": "[1]; Table 1, ip", "value": 5.4, "unit": "mg/kg"}, {"measurement": "Antidopaminergic activity: rat stereotype behaviour induced by apomorphine, ID50", "setting": "[1]; [6]", "value": 5.4, "unit": "mg/kg"}, {"measurement": "Antidopaminergic activity: dog emesis screen, ID50", "setting": "[2]; Table 1", "value": 0.0767, "unit": "mg/kg"}, {"measurement": "Antidopaminergic activity: dog emesis screen, ID50", "setting": "[2]; [7]", "value": 0.0767, "unit": "mg/kg"}, {"measurement": "side effects associated with dopamine receptor blockade in some patients", "setting": "[3]; human, in vivo", "value": "extrapyramidal symptoms and hyperprolactinemia related side effects in some patients"}]}
